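Five concentrations, 48 hours, 96-well plates. At the TGI there is no net growth.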
Assays:
Experiment in all cases: NCI-60 cell line screen, 48 h
[1] = tested on: NCI-H522 lung
[2] = tested on: HCT-116 colon
[3] = tested on: A549 NSCLC
[4] = tested on: SF-295 CNS
[5] = tested on: HT29 colon
[6] = tested on: UACC-257 melanoma
[7] = tested on: ACHN renal
[8] = tested on: SNB-75 CNS
[9] = tested on: NCI-H460 lung
[10] = tested on: UACC-62 melanoma
[11] = tested on: TK-10 renal
[12] = tested on: CCRF-CEM leukemia
[13] = tested on: SN12C renal
[14] = tested on: RXF 393 renal
[15] = tested on: LOX IMVI melanoma
[16] = tested on: SK-MEL-28 melanoma
[17] = tested on: NCI-H23 lung
[18] = tested on: IGROV1 ovarian
[19] = tested on: SW-620 colon
[20] = tested on: MOLT-4 leukemia
[21] = tested on: HCT-15 colon
[22] = tested on: DMS 273 small cell lung
[23] = tested on: LXFL 529 NSCLC
[24] = tested on: SF-268 CNS
[25] = tested on: K-562 leukemia
[26] = tested on: OVCAR-4 ovarian
[27] = tested on: SK-MEL-2 melanoma
[28] = tested on: OVCAR-8 ovarian
[29] = tested on: U251 CNS
[30] = tested on: HL-60(TB) leukemia
[31] = tested on: OVCAR-3 ovarian
[32] = tested on: DLD-1 colon
[33] = tested on: KM12 colon
[34] = tested on: SK-MEL-5 melanoma
[35] = tested on: UO-31 renal
[36] = tested on: SF-539 CNS
[37] = tested on: NCI-H226 lung
[38] = tested on: SNB-78 CNS
[39] = tested on: SK-OV-3 ovarian
[40] = tested on: DMS 114 small cell lung
[41] = tested on: A498 renal
[42] = tested on: MALME-3M melanoma
[43] = tested on: SNB-19 CNS
[44] = tested on: M19-MEL melanoma
[45] = tested on: 786-0 renal
[46] = tested on: EKVX NSCLC
[47] = tested on: HCC-2998 colon
[48] = tested on: OVCAR-5 ovarian
[49] = tested on: CAKI-1 renal
[50] = tested on: M14 melanoma
[51] = tested on: KM20L2 colon
[52] = tested on: RPMI-8226 leukemia
[53] = tested on: HOP-62 NSCLC
[54] = tested on: COLO 205 colon

Measured: TGI

O=Cc1ccccc1CCn1c(=O)c2cc3c(=O)n(CCc4ccccc4C=O)c(=O)c3cc2c1=O
> 100 µM: [1] | [2] | [3] | [4] | [5] | [6] | [7] | [8] | [9] | [10] | [11] | [12] | [13] | [14] | [15] | [16] | [17] | [18] | [19] | [20] | [21] | [22] | [23] | [24] | [25] | [26] | [27] | [28] | [29] | [30] | [31] | [32] | [33] | [34] | [35] | [36] | [37] | [38] | [39] | [40] | [41] | [42] | [43]

CSc1nc(NC2OCC(OC(C)=O)C(OC(C)=O)C2OC(C)=O)c2c(n1)OCC2=O (stereo unspecified)
> 100 µM: [1] | [2] | [44] | [3] | [4] | [5] | [6] | [45] | [46] | [47] | [48] | [49] | [7] | [8] | [9] | [10] | [11] | [12] | [13] | [14] | [15] | [16] | [17] | [18] | [19] | [20] | [50] | [21] | [22] | [23] | [24] | [51] | [25] | [27] | [28] | [29] | [30] | [31] | [32] | [33] | [34] | [35] | [52] | [36] | [37] | [38] | [39] | [40] | [41] | [53] | [42] | [43] | [54]

— PubChem BioAssay (NCI)
